Reference: patent US20100137449A1, “SUBSTITUTED 1,3-CYCLOPENTADIONE MULTI-TARGET PROTEIN KINASE MODULATORS OF CANCER, ANGIOGENESIS AND THE INFLAMMATORY PATHWAYS ASSOCIATED THEREWITH” (METAPROTEOMICS, LLC, priority 2007, published 2010)

Key:
Test in all cases: KinaseProfiler Assay
Itk(h) = target: T1, Itk(h) (Homo sapiens, UniProt Q08881)
T1 sequence (Q08881 1-620): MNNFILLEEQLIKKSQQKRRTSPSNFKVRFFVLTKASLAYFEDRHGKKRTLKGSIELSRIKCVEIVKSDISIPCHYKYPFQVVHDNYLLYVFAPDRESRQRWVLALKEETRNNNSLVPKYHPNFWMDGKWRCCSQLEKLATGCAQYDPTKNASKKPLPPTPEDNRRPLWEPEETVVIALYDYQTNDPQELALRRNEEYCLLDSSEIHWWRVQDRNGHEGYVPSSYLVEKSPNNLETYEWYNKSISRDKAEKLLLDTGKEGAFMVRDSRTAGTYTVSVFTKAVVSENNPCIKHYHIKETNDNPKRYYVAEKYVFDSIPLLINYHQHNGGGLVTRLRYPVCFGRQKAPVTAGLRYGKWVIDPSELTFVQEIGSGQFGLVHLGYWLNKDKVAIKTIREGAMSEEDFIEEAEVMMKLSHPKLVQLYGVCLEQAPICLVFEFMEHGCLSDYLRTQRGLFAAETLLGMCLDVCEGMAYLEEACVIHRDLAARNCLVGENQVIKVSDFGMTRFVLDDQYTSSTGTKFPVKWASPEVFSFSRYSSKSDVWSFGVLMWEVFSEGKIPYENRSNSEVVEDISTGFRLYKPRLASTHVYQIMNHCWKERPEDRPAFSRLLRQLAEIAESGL

PKBγ(h) = PKBγ(h) (Homo sapiens, UniProt Q9Y243)
Tie2(R849W)(h) = Tie2(R849W)(h) (Homo sapiens, UniProt Q02763, R849W)
JAK3(h) = target: T2, JAK3(h) (Homo sapiens, UniProt P52333)
T2 sequence (P52333 1-1124): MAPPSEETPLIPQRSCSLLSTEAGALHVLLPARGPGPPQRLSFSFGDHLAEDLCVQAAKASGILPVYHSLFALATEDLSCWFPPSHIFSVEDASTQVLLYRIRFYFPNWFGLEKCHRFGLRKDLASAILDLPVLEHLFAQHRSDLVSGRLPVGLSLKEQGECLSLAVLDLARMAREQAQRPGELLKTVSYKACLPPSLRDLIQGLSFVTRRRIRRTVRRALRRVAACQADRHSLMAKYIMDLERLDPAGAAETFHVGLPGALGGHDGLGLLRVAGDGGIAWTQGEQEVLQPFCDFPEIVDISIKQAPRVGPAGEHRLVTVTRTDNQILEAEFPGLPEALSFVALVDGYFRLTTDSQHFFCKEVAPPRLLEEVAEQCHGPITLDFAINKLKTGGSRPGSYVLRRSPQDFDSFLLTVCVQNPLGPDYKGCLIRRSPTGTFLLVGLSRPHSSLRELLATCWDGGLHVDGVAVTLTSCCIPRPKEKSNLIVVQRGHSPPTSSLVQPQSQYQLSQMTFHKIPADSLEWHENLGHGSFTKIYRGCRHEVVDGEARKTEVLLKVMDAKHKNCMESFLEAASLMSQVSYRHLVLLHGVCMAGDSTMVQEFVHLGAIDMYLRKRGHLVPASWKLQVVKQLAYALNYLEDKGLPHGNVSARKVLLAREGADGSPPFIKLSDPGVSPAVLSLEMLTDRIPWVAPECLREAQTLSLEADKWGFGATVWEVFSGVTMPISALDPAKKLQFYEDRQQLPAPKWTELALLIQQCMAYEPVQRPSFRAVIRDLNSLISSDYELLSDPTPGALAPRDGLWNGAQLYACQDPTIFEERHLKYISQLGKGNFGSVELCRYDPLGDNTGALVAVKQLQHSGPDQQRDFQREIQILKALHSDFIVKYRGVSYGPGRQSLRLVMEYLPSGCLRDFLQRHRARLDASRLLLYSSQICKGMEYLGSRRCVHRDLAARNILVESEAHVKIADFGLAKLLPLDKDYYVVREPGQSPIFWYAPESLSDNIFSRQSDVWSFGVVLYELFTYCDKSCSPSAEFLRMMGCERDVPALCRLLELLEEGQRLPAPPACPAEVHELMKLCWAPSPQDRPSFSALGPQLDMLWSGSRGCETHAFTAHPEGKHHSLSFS

Flt1(h) = Flt1(h) (Homo sapiens, UniProt P17948)
Ron(h) = Ron(h) (Homo sapiens, UniProt Q04912)
Tie2(h) = Tie2(h) (Homo sapiens, UniProt Q02763)
Tie2(h), sequence (Q02763 23-1124): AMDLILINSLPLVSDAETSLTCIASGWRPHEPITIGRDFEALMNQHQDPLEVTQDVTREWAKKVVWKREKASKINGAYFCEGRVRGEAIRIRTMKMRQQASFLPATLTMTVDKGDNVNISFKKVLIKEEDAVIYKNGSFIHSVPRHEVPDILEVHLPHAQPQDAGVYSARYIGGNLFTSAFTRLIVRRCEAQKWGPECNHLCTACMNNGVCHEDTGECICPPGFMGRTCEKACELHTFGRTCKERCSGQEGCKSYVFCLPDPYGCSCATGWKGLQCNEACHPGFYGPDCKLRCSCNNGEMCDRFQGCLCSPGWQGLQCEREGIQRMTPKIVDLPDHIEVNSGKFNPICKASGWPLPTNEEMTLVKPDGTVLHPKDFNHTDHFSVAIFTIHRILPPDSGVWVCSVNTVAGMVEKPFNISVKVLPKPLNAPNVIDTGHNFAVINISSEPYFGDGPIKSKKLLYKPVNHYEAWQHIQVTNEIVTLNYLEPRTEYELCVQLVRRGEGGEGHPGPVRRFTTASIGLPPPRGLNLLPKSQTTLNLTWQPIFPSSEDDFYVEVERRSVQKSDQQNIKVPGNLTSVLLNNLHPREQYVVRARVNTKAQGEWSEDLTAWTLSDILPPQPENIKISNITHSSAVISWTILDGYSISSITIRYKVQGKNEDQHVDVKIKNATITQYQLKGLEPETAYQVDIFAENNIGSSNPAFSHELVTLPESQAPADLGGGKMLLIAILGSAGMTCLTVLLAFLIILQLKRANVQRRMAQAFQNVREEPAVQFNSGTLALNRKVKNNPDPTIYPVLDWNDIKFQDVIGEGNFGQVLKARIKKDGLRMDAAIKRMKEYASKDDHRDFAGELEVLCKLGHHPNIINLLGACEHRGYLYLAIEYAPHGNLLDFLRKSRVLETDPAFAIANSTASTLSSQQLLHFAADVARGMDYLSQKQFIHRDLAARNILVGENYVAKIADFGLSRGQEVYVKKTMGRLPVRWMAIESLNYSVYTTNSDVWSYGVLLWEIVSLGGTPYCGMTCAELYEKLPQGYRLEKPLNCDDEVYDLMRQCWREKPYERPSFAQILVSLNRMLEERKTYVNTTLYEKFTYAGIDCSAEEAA

Flt1(h), sequence (P17948 27-1338): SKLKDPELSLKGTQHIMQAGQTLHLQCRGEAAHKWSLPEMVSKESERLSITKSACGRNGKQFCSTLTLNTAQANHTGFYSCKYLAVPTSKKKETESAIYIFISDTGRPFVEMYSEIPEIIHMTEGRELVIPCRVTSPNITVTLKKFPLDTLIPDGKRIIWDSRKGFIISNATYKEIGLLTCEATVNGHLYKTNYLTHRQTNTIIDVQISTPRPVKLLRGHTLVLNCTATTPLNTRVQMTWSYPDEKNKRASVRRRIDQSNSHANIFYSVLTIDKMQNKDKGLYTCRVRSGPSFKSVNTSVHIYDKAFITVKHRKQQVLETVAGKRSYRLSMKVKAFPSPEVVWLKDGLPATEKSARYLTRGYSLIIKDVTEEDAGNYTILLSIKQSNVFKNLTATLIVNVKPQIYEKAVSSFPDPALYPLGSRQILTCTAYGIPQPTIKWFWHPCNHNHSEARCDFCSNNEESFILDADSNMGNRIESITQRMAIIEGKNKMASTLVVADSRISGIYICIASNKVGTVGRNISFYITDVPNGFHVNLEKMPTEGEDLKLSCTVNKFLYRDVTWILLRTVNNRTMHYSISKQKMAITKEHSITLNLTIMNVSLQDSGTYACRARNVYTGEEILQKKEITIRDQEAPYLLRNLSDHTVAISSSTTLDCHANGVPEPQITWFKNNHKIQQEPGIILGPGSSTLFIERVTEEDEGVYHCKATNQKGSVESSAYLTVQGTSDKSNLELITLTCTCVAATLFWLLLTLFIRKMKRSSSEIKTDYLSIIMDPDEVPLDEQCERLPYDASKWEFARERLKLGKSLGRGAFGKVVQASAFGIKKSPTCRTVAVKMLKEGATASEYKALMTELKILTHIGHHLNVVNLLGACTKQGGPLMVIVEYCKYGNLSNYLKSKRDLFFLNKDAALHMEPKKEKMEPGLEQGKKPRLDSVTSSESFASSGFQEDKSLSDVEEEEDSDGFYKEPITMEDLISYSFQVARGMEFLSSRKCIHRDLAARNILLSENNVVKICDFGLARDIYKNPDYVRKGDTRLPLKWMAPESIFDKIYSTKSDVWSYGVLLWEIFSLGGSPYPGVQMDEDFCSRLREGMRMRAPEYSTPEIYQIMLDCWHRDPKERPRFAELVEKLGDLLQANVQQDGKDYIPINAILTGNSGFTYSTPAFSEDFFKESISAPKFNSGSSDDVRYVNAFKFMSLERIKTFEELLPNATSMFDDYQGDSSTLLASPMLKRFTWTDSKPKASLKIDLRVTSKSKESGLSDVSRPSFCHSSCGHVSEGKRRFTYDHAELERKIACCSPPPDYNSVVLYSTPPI
PKBγ(h), sequence (Q9Y243 whole entry): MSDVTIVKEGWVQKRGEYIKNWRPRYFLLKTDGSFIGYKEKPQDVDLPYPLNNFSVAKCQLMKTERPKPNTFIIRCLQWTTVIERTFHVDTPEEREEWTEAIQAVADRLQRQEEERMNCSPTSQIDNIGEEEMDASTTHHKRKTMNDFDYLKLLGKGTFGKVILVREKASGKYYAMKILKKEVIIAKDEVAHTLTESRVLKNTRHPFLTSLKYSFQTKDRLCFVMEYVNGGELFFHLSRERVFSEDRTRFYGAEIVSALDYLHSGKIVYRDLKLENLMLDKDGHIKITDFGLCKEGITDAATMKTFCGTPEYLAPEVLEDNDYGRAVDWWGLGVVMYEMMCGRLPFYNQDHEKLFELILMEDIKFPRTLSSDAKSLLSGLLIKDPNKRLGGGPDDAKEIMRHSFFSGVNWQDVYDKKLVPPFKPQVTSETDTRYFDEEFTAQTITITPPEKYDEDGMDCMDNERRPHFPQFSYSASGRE
Tie2(R849W)(h), sequence (Q02763 23-1124 R849W): as the sequence (Q02763 23-1124) above, with R827W counted along it
Ron(h), sequence (Q04912 25-1400): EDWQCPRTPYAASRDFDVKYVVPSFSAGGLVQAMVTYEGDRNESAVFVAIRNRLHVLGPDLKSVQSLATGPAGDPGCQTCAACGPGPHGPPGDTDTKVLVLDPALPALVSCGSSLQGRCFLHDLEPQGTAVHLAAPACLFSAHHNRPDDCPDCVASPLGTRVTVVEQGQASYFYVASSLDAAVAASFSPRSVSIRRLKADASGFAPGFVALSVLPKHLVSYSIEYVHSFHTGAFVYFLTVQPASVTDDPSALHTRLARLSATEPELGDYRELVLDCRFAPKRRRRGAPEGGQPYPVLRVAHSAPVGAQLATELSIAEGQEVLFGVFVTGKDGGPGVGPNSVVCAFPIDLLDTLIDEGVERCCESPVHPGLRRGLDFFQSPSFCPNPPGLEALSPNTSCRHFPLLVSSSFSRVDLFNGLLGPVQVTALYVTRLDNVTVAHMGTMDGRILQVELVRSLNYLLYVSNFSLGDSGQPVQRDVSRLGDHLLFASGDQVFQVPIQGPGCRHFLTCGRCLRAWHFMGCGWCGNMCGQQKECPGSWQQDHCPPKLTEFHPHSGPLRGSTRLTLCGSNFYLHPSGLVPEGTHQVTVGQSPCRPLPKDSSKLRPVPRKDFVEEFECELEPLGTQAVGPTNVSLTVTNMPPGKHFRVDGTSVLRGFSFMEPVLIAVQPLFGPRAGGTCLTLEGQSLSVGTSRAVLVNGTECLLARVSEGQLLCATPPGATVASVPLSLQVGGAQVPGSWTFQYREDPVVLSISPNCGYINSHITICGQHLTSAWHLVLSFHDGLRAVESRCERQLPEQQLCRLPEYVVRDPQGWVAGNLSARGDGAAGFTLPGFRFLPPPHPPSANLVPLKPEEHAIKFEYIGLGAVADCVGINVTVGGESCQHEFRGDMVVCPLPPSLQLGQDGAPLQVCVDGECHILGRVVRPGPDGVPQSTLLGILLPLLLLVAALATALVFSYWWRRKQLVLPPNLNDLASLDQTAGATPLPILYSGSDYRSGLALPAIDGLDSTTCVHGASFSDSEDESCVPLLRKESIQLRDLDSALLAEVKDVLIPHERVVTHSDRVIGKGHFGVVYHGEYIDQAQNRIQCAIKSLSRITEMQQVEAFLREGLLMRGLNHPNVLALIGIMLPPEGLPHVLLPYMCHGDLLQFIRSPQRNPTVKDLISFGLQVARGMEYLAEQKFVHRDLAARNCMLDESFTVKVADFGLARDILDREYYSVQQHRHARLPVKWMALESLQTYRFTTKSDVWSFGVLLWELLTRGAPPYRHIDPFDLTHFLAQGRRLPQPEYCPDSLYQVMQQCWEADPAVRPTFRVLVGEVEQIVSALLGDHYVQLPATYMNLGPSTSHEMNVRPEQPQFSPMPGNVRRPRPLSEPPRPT

CC(C)CCC(=O)[C@]1(O)C(O)=C(C(=O)C(C)C)C(=O)[C@H]1CCC(C)C [TH2, tetrahydroiso-cohumulone]
kinase inhibition (Itk(h); 1 μg/ml): 101% of control
kinase inhibition (Itk(h); 5 μg/ml): 103% of control
kinase inhibition (Itk(h); 25 μg/ml): 87% of control
kinase inhibition (Itk(h); 50 μg/ml): 82% of control
kinase inhibition (Itk(h); 100 μg/ml): 87% of control
kinase inhibition (PKBγ(h); 1 μg/ml): 112% of control
kinase inhibition (PKBγ(h); 5 μg/ml): 110% of control
kinase inhibition (PKBγ(h); 25 μg/ml): 107% of control
kinase inhibition (PKBγ(h); 50 μg/ml): 97% of control
kinase inhibition (PKBγ(h); 100 μg/ml): 83% of control
kinase inhibition (Tie2(R849W)(h); 1 μg/ml): 91% of control
kinase inhibition (Tie2(R849W)(h); 5 μg/ml): 53% of control
kinase inhibition (Tie2(R849W)(h); 25 μg/ml): 48% of control
kinase inhibition (Tie2(R849W)(h); 50 μg/ml): 43% of control
kinase inhibition (Tie2(R849W)(h); 100 μg/ml): 46% of control
kinase inhibition (JAK3(h); 1 μg/ml): 74% of control
kinase inhibition (JAK3(h); 5 μg/ml): 67% of control
kinase inhibition (JAK3(h); 25 μg/ml): 62% of control
kinase inhibition (JAK3(h); 50 μg/ml): 53% of control
kinase inhibition (JAK3(h); 100 μg/ml): 35% of control
kinase inhibition (Flt1(h); 1 μg/ml): 102% of control
kinase inhibition (Flt1(h); 5 μg/ml): 97% of control
kinase inhibition (Flt1(h); 25 μg/ml): 103% of control
kinase inhibition (Flt1(h); 50 μg/ml): 102% of control
kinase inhibition (Flt1(h); 100 μg/ml): 98% of control
kinase inhibition (Ron(h); 1 μg/ml): 123% of control
kinase inhibition (Ron(h); 5 μg/ml): 124% of control
kinase inhibition (Ron(h); 25 μg/ml): 123% of control
kinase inhibition (Ron(h); 50 μg/ml): 116% of control
kinase inhibition (Ron(h); 100 μg/ml): 94% of control
kinase inhibition (Tie2(h); 1 μg/ml): 110% of control
kinase inhibition (Tie2(h); 5 μg/ml): 96% of control
kinase inhibition (Tie2(h); 25 μg/ml): 74% of control
kinase inhibition (Tie2(h); 50 μg/ml): 80% of control
kinase inhibition (Tie2(h); 100 μg/ml): 78% of control
